Reference: article PMC5841303, “In silico screening for human norovirus antivirals reveals a novel non-nucleoside inhibitor of the viral polymerase” (Scientific Reports, 2018)
Read-outs that look alike come from different tables or passages of the source.

Tests used:
[1] = target: human norovirus Sydney 2012 RdRp (Norovirus GII.4 (Norwalk virus, human norovirus), UniProt K4L8Z7); experiment: Fluorescent de novo RdRp activity assay (PicoGreen, poly(C) template); assay type: biochemical; settings: for inhibition at 100 µM: read-out: inhibition of human norovirus RdRp activity, 100 µM
Protocol: The 62 compounds identified in silico were screened for inhibition of norovirus RdRp activity using an in vitro fluorescent, de novo RdRp assay. Compounds were tested at fixed concentrations of 10 µM and 100 µM, and compared to mock treated samples containing the vehicle only (0.5% DMSO [vol/vol]) (Fig. 4A,B). […] For certain compounds, significant insolubility was observed, coupled with either inherent fluorescence quenching (positive y-axis values on Fig. 4A,B) or enhancement of the fluorescence signal (negative y-axis values).
The newly synthesised compounds, including the re-prepared hit 13 and some synthesis intermediates (Table 1), were initially evaluated on norovirus Sydney 2012 RdRp activity in vitro using a quantitative fluorescent assay. Compounds were tested at a fixed concentration of 10 μM and compared to the relative activity of mock treated samples.
Recombinant calicivirus RdRps (GenBank accession numbers) norovirus GII.Pe/GII.4 Sydney 2012 (KT239579), MNV GV CW1 (DQ285629), RHDV Czech V351 (KF594473.1), and SaV GI.1 Mc114 (AY237422) were expressed and purified as described previously[60],[61]. RdRp resistance mutants were generated using the QuikChange site-directed mutagenesis kit (Agilent Technologies, Santa Clara, CA, USA) and confirmed by Sanger sequencing.
(§1) Fluorescent RdRp activity assays were carried out as previously described[14],[62]. Briefly, RdRp activity was quantified by monitoring the formation of double-stranded RNA (dsRNA) from a single stranded homopolymeric template, poly(C) (Sigma Aldrich, St Louis, MO, USA), using the fluorescent dye PicoGreen (Life Technologies, Carlsbad, CA, USA). RdRp assays were performed in 384-well plates, and each reaction mixture contained 400 ng enzyme, 45 µM GTP, 10 ng/µL poly(C) RNA, 2.5 mM MnCl2, 5 mM dithiothreitol, (DTT), 0.01% bovine serum albumin (BSA), and 0.005% Tween 20 in 20 mM Tris-HCl, pH 7.5, with a final reaction volume of 25 µL. The previous published norovirus NNI NIC02 was used as a positive control. RdRps were incubated for 10 mins at 30 °C in the presence of the test compounds or the compound vehicle DMSO (0.5% vol/vol) before addition into the reaction mixture, which was then allowed to run 15 min at 30 °C then terminated with 10 mM EDTA, followed by PicoGreen staining and dsRNA quantitation. GraphPad Prism V6.05 (La Jolla, CA, USA) was used to plot the IC50 values. In cases where fluorescent enhancement was recorded for a compound instead of inhibition, a secondary gel-based polymerase activity assay was used as a counter-screen as described below, to exclude the possibility of RdRp activity enhancement (Supplementary Fig. S1). Primed elongation activity was examined in a gel-based assay as previously described[16],[63] using the RNA template (PE44-NoV, Fig. 4D). Gels were imaged using BioRad (Hercules, CA, U.SA) Geldoc Universal Hood II, running BioRad Image Lab software, V4.1, build 16. Antagonism was calculated using Compusyn software V1.0[59]. 54 and PPNDS (4:1 ratio) were tested alone and together against norovirus Sydney 2012 RdRp.

norovirus RdRp = experiment: Counter-screen gel-shift RdRp assay (primed elongation of PE44-NoV template); assay type: biochemical, human norovirus; settings: for inhibition of primed elongation activity (gel-shift): fixed concentration of 100 µM; for RdRp activity enhancement in gel-based counter-screen: 100 µM
Protocol: In this assay, a 32 nucleotide RNA template (PE44-NoV) is extended to 44 nucleotides in the presence of an active RdRp[16]. […] Inhibition of primed elongation of the PE44-NoV template was examined at a fixed concentration of 100 µM (Fig. 4D). In the absence of inhibition (0.5% DMSO vehicle only) the RNA template was extended to 44 nucleotides (Fig. 4D), evidenced by an upward gel shift and the appearance of the second, higher band.
as §1

MNV = MNV plaque reduction assay in cell culture; assay type: cell-based, murine norovirus
Protocol: As mentioned above, the only robust cellular assay available for the evaluation of potential norovirus inhibitors is the closely related MNV assay. […] Consequently, 54 was further assessed to determine the IC50 value against MNV RdRp activity using an in vitro fluorescent assay. […] 54 was then assessed for cytotoxicity against RAW264.7 mouse macrophage cells using a cell viability assay. […] Using the plaque reduction assay, the inhibitory effects of 54 (0.5–50 µM) were examined against MNV plaque formation in cell culture. […] Compound solubility and its cell-membrane permeability properties could be further improved with structure-activity relationship enhancement of the 54 scaffold to facilitate cellular uptake, and therefore to increase antiviral efficacy. Work on this aspect is ongoing, and it will be reported in due course.
MNV-1 (CW1) culture assays were performed as previously described. Replication was examined using plaque assays[58],[64],[65]. Cytotoxicity was examined using a CellTitre Blue (Promega, Madison, WI, USA) viability assay as described previously.

[2] = Observed compound solubility; assay type: physicochemical; settings: assay conditions / 100% DMSO
Protocol: Therefore, they were counter-screened at 100 µM in a secondary gel-based assay (Supplementary Fig. S1).
To confirm RdRp inhibition and to exclude any potential false positives from the first fluorescence RdRp assay, the eight selected compounds (Fig. 4C) were then assessed using a gel-shift enzyme activity assay.
Dose-dependent inhibitory response curves were used to establish IC50 values for the five test compounds (Table 2). […] Therefore, 42b was too insoluble to attain a reliable confidence interval in the dose-response experiments and was not examined further. However, from the other four compounds, hit 11 and its phenyl derivative 54 gave the lowest IC50 values, 3–5 fold improved compared with 13 and its derivative 42a, confirming increased RdRp inhibitory activity associated with this scaffold.

[3] = read-out: inhibition of human norovirus RdRp activity, 10 µM, initial screen of purchased compounds
[4] = initial screen of purchased compounds
[5] = 10 µM, secondary screen of newly synthesised compounds
[6] = read-out: inhibition of norovirus Sydney 2012 RdRp activity, 10 µM, secondary screen of newly synthesised compounds
[7] = 100 µM, initial screen of purchased compounds

For `Cc1ccc(NC(=O)CSc2n[nH]c(-c3ccccc3O)n2)c(C)c1` [Compound 10], the inhibition at 10 µM [1, 3] was over 25% and the inhibition at 100 µM [1, 4] was over 25%.

With `O=C(CN1C(=O)S/C(=C\c2ccc(-c3ccccc3)o2)C1=O)N1CCOCC1` [Compound 23a] the “inhibition of norovirus Sydney 2012 RdRp activity” value [1, 5] was “complete loss of activity”.

For `Cc1cc(C(=O)O)ccc1-c1ccc(/C=C2\SC(=O)N(CC(=O)N3CCOCC3)C2=O)o1` [Compound 13], the IC50 [1] was 15 µM, the inhibition at 10 µM [1, 3] was over 25% and the inhibition at 100 µM [1, 4] was over 50%. The inhibition at 10 µM [1, 6] was 25%, the “inhibition of primed elongation activity (gel-shift)” value (“inhibition … (gel-shift)” below) (norovirus RdRp) was “complete inhibition” and the inhibition at 100 µM (MNV; 100 µM, read-out: inhibition of MNV plaque formation) was 21%.

In the case of `O=C(O)c1ccc2nc(-c3cccc(-c4nc5ccc(C(=O)O)cc5[nH]4)c3)[nH]c2c1` [AJ-077/33270018], the “inhibition of human norovirus RdRp activity” value [1, 7] is reported as “apparent RdRp enhancement”, the “RdRp activity enhancement in gel-based counter-screen” value (norovirus RdRp) is reported as “not seen in the gel-based assay” and the “solubility (observation)” value [2] is reported as “insolubility”.

In the case of `O=C1NC(=O)/C(=C/c2ccc(-c3ccc(C(=O)O)cc3)o2)S1` [Compound 27], the “inhibition of norovirus Sydney 2012 RdRp activity” value [1, 5] is reported as “lacked RdRp inhibitory activity”.

With `Cc1ccc(N2NC(=O)C(=Cc3ccc(-c4ccc(S(=O)(=O)Nc5nccs5)cc4)o3)C2=O)cc1` [Compound 11] the IC50 [1] was 5 µM, the inhibition at 10 µM [1, 3] was over 25% and the inhibition at 100 µM [1, 4] was over 50%. For the same molecule, the “inhibition … (gel-shift)” value (norovirus RdRp) was “complete inhibition”, the inhibition at 10 µM (MNV; 10 µM, read-out: inhibition of MNV plaque formation) was 37.1% and the “cytotoxicity seen in plaque assay” value (MNV; 100 µM) was “cytotoxic”.

With `COC(=O)c1ccc(-c2ccc(/C=C3\SC(=O)N(CC(=O)N4CCOCC4)C3=O)o2)cc1` [Compound 23b] the “inhibition of norovirus Sydney 2012 RdRp activity” value [1, 5] was “complete loss of activity”.

For `CC(NC(=O)CCC(=O)Nc1ccccc1O)c1ccccc1` (centres unmarked) [Compound 7], the inhibition at 10 µM [1, 3] was over 25% and the inhibition at 100 µM [1, 4] was over 50%.

For `CCC(O)CC(C(=O)NNc1ccccc1)C(=O)NNc1ccccc1` (centres unmarked) [AE-562/12222591], the “inhibition of human norovirus RdRp activity” value ([1]; 10 µM, initial screen of purchased compounds) was “over 25%”, the “inhibition of human norovirus RdRp activity” value [1, 7] was “over 25%” and the “solubility (observation)” value [2] was “precipitated heavily in 100% DMSO”.

For `COC(=O)c1ccc(-c2ccc(/C=C3\SC(=O)N(CC(=O)N4CCOCC4)C3=O)o2)c(C)c1` [Compound 39d], the “inhibition of norovirus Sydney 2012 RdRp activity” value [1, 5] was “complete loss of activity”.

For `O=C(O)c1ccccc1-c1ccccc1C(=O)Nc1cccc(O)c1` [Compound 6], the inhibition at 10 µM [1, 3] was over 25% and the inhibition at 100 µM [1, 4] was over 50%.

In the case of `Cc1ccccc1-c1ccc(/C=C2\SC(=O)NC2=O)o1` [Compound 18c], the “inhibition of norovirus Sydney 2012 RdRp activity” value [1, 5] is reported as “lacked RdRp inhibitory activity”.

With `COC(=O)c1ccc(-c2ccc(/C=C3\SC(=O)N(CC(=O)Nc4ccccc4)C3=O)o2)cc1` [Compound 42b] the inhibition at 10 µM [1, 6] was over 50%, the “inhibition … (gel-shift)” value (norovirus RdRp) was “near complete abolishment of norovirus RdRp activity” and the “solubility (observation)” value [2] was “significant solubility issues”.

With `O=C(Nc1ccc(O)c(-c2nc3ccccc3o2)c1)c1cccnc1` [AP-970/12851847] the “inhibition of human norovirus RdRp activity” value [1, 7] was “apparent RdRp enhancement”, the “RdRp activity enhancement in gel-based counter-screen” value (norovirus RdRp) was “not seen in the gel-based assay” and the “solubility (observation)” value [2] was “insolubility”.
